# Assay results: US20060188937A1, “G-protein estrogen membrane receptor” (Board Of Regents, The University Of Texas System, priority 2004, published 2006)
# “Also recorded” adds a separate entry of the source.
# Legend:
# GPR30 [1] = molecular target: T1, GPR30 (Homo sapiens, UniProt Q99527); assay: cAMP measurement (adenylyl cyclase activity), HEK293 cells transfected with GPR30; format: biochemical; details: for activation of stimulatory G-protein and upregulation of adenylyl cyclase activity / cAMP production: transfected cells; for activation of stimulatory G-protein and upregulation of adenylyl cyclase activity: discussion summary; for cAMP production: FIG. 3F, 100 nm, 20 min
# T1 sequence (Q99527 whole entry): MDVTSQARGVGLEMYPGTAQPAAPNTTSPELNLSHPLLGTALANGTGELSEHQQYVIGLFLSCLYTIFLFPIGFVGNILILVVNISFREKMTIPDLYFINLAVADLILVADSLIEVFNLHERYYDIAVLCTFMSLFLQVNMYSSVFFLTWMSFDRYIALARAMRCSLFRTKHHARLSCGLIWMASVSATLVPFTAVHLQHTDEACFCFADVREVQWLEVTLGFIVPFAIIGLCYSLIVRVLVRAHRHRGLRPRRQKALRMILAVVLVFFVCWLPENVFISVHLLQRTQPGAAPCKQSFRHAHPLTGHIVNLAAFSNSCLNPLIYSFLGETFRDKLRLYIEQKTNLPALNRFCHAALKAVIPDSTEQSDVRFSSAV
# SKBR3 cells [2] = assay: Hormone pretreatment of SKBR3 cells, E2 receptor binding to plasma membranes; format: cell-based, human; details: 200 nm for 16 hrs in FBS-free media
# GPR30 [3] = molecular target: T1, GPR30; details: for affinity for the receptor in competitive binding: concentrations up to 1 μM; for binding affinities to the receptor: summary statement
# [4] = test system: untransfected HEK293 cells; assay: [35S]GTPγS binding to membranes of untransfected HEK293 cells; format: biochemical, human; details: 100 nm
# Experimental: [^35S]GTPγ-S binding to cell membranes. Binding of [^35S]GTPγ-S to plasma membranes (˜10 μg protein) was assayed following the procedure of Liu and Dillon (30) with few modifications. Plasma membranes were incubated with 10 μM GDP and 0.5 nm [^35S]GTPγ-S (˜12,000 cpm, 1.0 Ci/mol) in […] Tris buffer ([…], 5 mM MgCl2, 1 mM CaCl2, 0.6 mM EDTA, 0.1% BSA, 50 mM Tris-HCl, pH 7.4) at 25° C. for 30 min in the presence of 100 nm of the test compounds. Nonspecific binding was determined by addition of 100 μM GTPγ-S. At the end of the incubation period 100 μl aliquots were filtered through Whatman GF/B glass fiber filters, followed by several washes and subsequent scintillation counting.
# [5] = test system: untransfected HEK293 cells; assay: cAMP measurement, untransfected HEK293 cells; format: biochemical, human; details: 15 min treatment with 200 nm
# SKBR3 cells [6] = details: cited from earlier work
# wild-type GPR30 = molecular target: T2, wild-type GPR30 (Homo sapiens, UniProt Q99527); assay: [35S]GTPγS binding to membranes of SKBR3 cells; format: biochemical; details: for specific [35S]GTPγS binding (activation of G-proteins): 100 nm, SKBR3 cell membranes; for agonist action on GPR30 / mER-mediated pathway: summary statements
# T2 construct: membranes of SKBR3 cells expressing wild-type GPR30; endogenous in cells; host or cells: SKBR3 (human breast cancer cells, ATCC)
# T2 sequence (Q99527 whole entry): as above
# Experimental: [^35S]GTPγ-S binding to cell membranes. Binding of [^35S]GTPγ-S to plasma membranes (˜10 μg protein) was assayed following the procedure of Liu and Dillon (30) with few modifications. […] Nonspecific binding was determined by addition of 100 μM GTPγ-S. At the end of the incubation period 100 μl aliquots were filtered through Whatman GF/B glass fiber filters, followed by several washes and subsequent scintillation counting.
# GPR30 [7] = molecular target: T1, GPR30; assay: Competitive binding against [3H]E2, plasma membranes of HEK293 cells transfected with GPR30
compound,measurement,setting,value
C[C@]12CC[C@@H]3c4ccc(O)cc4CC[C@H]3[C@@H]1CCC2=O [estrone],activation of stimulatory G-protein and upregulation of adenylyl cyclase activity,GPR30 [1],inactive
"CC(=O)[C@H]1CC[C@H]2[C@@H]3CCC4=CC(=O)CC[C@]4(C)[C@H]3CC[C@]12C [P4, progesterone]",increase in receptor binding,SKBR3 cells [2],9 fold
same,affinity for the receptor in competitive binding,GPR30 [3]; SKBR3 membranes,no affinity
"C[C@]12CC[C@@H]3c4ccc(O)cc4CC[C@H]3[C@@H]1CC[C@@H]2O [E2, 17β-estradiol]",specific [35S]GTPγS binding,[4],not to membranes of untransfected cells
same,"adenylyl cyclase activity, increase in cAMP content",[5],not in untransfected cells
same,increase in receptor binding,SKBR3 cells [2],2.5 fold
same,effective concentration (cAMP) previously shown,SKBR3 cells [6],1 nm
"ClC(Cl)=C(c1ccc(Cl)cc1)c1ccccc1Cl [o,p′-DDE]",specific [35S]GTPγS binding (activation of G-proteins),wild-type GPR30,significantly increased
same,agonist action on GPR30 / mER-mediated pathway,wild-type GPR30,agonist; also recorded: mimic the actions of E2
same,cAMP production,GPR30 [1],significantly increased cAMP
same,displacement of [3H]-E2 binding,"GPR30 [3]; SKBR3 membranes, concentrations 0.1-1 μM",significant displacement
same,binding affinities to the receptor,GPR30 [3],high binding affinities
same,binding affinity in competitive binding,GPR30 [7],significant binding affinity
C[C@]12CC[C@@H]3c4ccc(O)cc4CC[C@H]3[C@@H]1C[C@@H](O)[C@@H]2O [estriol],specific [35S]GTPγS binding (activation of G-proteins),wild-type GPR30,failed to activate the G-proteins
same,cAMP production,GPR30 [1],did not alter cAMP production
same,activation of stimulatory G-protein and upregulation of adenylyl cyclase activity,GPR30 [1],inactive
"C[C@]12CC[C@@H]3c4ccc(O)cc4C[C@@H](CCCCCCCCC[S+]([O-])CCCC(F)(F)C(F)(F)F)[C@H]3[C@@H]1CC[C@@H]2O (stereo partly shown) [ICI 182, 780]",agonist action on GPR30 / mER-mediated pathway,wild-type GPR30,estrogen agonists
same,agonist action on GPR30 / mER-mediated pathway,"wild-type GPR30; listed as ICI 182,780",mimic the actions of E2
same,"adenylyl cyclase activity, increase in cAMP content","GPR30 [1]; transfected HEK293 cells, 15 min treatment with 200 nm",significantly increased
same,cAMP production,GPR30 [1],significantly increased cAMP
same,"adenylyl cyclase activity, increase in cAMP content",[5],not in untransfected cells
same,"relative binding affinity (RBA), % that of E2",GPR30 [3]; SKBR3 membranes,approximately 10%
same,decrease in RBA to GPR30 versus estradiol-17β,GPR30 [3]; discussion summary,only minor decreases
same,binding affinities to the receptor,GPR30 [3],high binding affinities
same,binding affinity in competitive binding,GPR30 [7],significant binding affinity
CC/C(=C(\c1ccccc1)c1ccc(OCCN(C)C)cc1)c1ccccc1 [tamoxifen],specific [35S]GTPγS binding (activation of G-proteins),wild-type GPR30,significantly increased
same,agonist action on GPR30 / mER-mediated pathway,wild-type GPR30,estrogen agonists; also recorded: mimic the actions of E2
same,cAMP production,GPR30 [1],significantly increased cAMP
same,binding affinity in competitive binding,GPR30 [7],significant binding affinity
cholera toxin,effect on estrogen-induced increase in cAMP concentrations,GPR30 [1],blocked
"CC/C(=C(/CC)c1ccc(O)cc1)c1ccc(O)cc1 [diethystilbestrol, diethylstilbestrol]",displacement of [3H]E2,GPR30 [7]; concentrations up to 10 μM,failed to significantly displace
C[C@]12CC[C@H]3[C@@H](CCC4=CC(=O)CC[C@@]43C)[C@@H]1CC[C@@H]2O [testosterone],affinity for the receptor in competitive binding,GPR30 [3]; SKBR3 membranes,no affinity
C[C@]12CCC(=O)C=C1CC[C@@H]1[C@@H]2[C@@H](O)C[C@@]2(C)[C@H]1CC[C@]2(O)C(=O)CO [cortisol],affinity for the receptor in competitive binding,GPR30 [3]; SKBR3 membranes,no affinity
"C[C@H]1CCCC(=O)CCC/C=C/c2cc(O)cc(O)c2C(=O)O1 [zearalonone, zearalenone]",binding affinity in competitive binding,GPR30 [7],significant binding affinity
